Measured values: US20070294785A1, “METHODS FOR […] DIVERSITY BY PERMUTATIONAL MUTAGENESIS” (Athenix Corporation, priority 2006, published 2007)

Test system: BL21*DE3 competent E. coli cells
Test: Screening for glyphosate resistance on plates
Format: cell-based
Settings: M63+ agar plates, 50 mM glyphosate, 0.05 mM IPTG, 50 ug/ml kanamycin, 36 hours at 37° C.
Method: Library ligations were transformed into BL21*DE3 competent E. coli cells (Invitrogen). The transformations were performed according to the manufacturer's instructions with the following modifications. After incubation for 1 hour at 37° C. in SOC medium, the cells were sedimented by centrifugation (5 minutes, 1000×g, 4° C.). The cells were washed with 1 ml M63+, centrifuged again, and the supernatant decanted. The cells were washed a second time with 1 ml M63+ and resuspended in 200 ul M63+.
For selection of mutant GRG1 enzymes conferring glyphosate resistance to E. coli, the cells were plated onto M63+ agar medium plates containing 50 mM glyphosate, 0.05 mM IPTG (isopropyl-beta-D-thiogalactopyranoside), and 50 ug/ml kanamycin. M63+ medium contains 100 mM KH2PO4, 15 mM (NH4)2SO4, 50 μM CaCl2, 1 μM FeSO4, 50 μM MgCl2, 55 mM glucose, 25 mg/liter L-proline, 10 mg/liter thiamine HCl, sufficient NaOH to adjust the pH to 7.0, and 15 g/liter agar. The plates were incubated for 36 hours at 37° C.

Substance	glyphosate resistance (growth on glyphosate plates)
L2-A (PFINCDESGLSFRMFTPIVALSK; Clone L2-A)	glyphosate resistant
L2-7 (PFIECGESGLSIRLFTPLVALSK; Clone L2-7)	glyphosate resistant
L2-4 (PFIKCRESGLSMRMFAPMVALSK; Clone L2-4)	glyphosate resistant
L2-6 (PFIDCGESGLSFRMFVPIVALSK; Clone L2-6)	glyphosate resistant
L2-8 (PFIDCSESGLSFRMFAPLVALSK; Clone L2-8)	glyphosate resistant
L2-3 (PFIDCDESGLSIRMFTPIVALSK; Clone L2-3)	glyphosate resistant
L2-9 (PFINCGESGLSFRMFIPMVALSK; Clone L2-9)	glyphosate resistant
